Measured values reported in US7223365B2, “Device and method for detecting the coagulation functions of global, especially primary hemostasis” (priority 2000, dated 2007).

Test system: platelet function
Assay: examination of the coagulation function of the global, in particular the primary, hemostasis; volumetric flow regulated by pressure change in the reaction opening at constant shear rate
Format: cell-based
Conditions: FIG. 29; volumetric flow regulated at specified constant shear rate
Description: The sealing time and the sealing volume are measurement values for clinical analysis.

For `CC(=O)Oc1ccccc1C(=O)O` [ASA, acetylsalicylic acid], which “deposition of platelets in the reaction opening” value is on record?
Its value is “hardly any deposition of platelets”.

What about the “measurement limits (sealing time / sealing volume)” value of the same compound?
Its value is “not reached”.
